Data taken from patent publication US20200188477A1, “A MEDICAMENT FOR THE TREATMENT OF DISEASES BY BIOFILM FORMING MICROORGANISMS” (priority 2017, published 2020).
Values after ≈ are worked out from the molar mass of the structure shown. Like-named read-outs stand apart in the source and are kept apart here.

Tested on: M. smegmatis
Test: microbe, parasite or virus in culture
Format: cell-based, Mycobacterium smegmatis
Conditions: for MIC: Mycolicibacterium smegmatis

Compound | concentration that inhibits culture (absence of cyclosporine A, […]) [µg/mL] | inhibitory effect on culture (presence of cyclosporine A, […]) | MIC (absence of acarbose, PpiB (Tet+), read-out: MIC) [µg/mL] | MIC (absence of acarbose, VC (Tet+), read-out: MIC) [µg/mL] | MIC (absence of cyclosporine A, PpiB (tet+), read-out: minimum inhibitory concentration (MIC)) [µg/mL] | MIC (absence of cyclosporine A, […], read-out: minimum inhibitory concentration (MIC)) [µg/mL] | MIC (presence of acarbose, PpiB (Tet+), read-out: MIC) [µg/mL] | MIC (presence of cyclosporine A, PpiB (tet+), read-out: MIC) [µg/mL] | MIC (presence of cyclosporine A, […], read-out: MIC) [µg/mL]
CC[C@@H](CO)NCCN[C@@H](CC)CO [ethambutol] | 4 | enhanced |  |  |  |  |  |  | 
NNC(=O)c1ccncc1 [isoniazide] |  |  | 64 (≈ 467 µM) | 16 (≈ 117 µM) | 64 (≈ 467 µM) | 16 (≈ 117 µM) | 32 | 32 | 8
